Measurements taken from patent US9121015B2, “Peptide having a vascularization-suppressing activity and a use therefor” (CATHOLIC UNIVERSITY INDUSTRY ACADEMIC COOPERATION FOUNDATION, priority 2010, dated 2015).
“Also recorded” adds a separate entry of the source. Where two headings read alike, the source gives them in different places. No end group written: not given here.

What was measured:
HUVECs [1] = assay: endothelial cell migration assay, modified Boyden chamber, VEGF-induced; type: cell-based, human; settings: for cell migration reduced: VEGF-induced, compared to untreated control; for inhibition of VEGF-induced migration of endothelial cells: 0.1˜100 μM
Procedure: In order to evaluate the effect of the peptides of the present invention on the cell migration, the present inventors conducted cell migration assay using modified Boyden chamber. HUVECs were treated with each peptide for 30 min and then, the cells were allowed to migrate toward VEGF (2˜5 ng/ml). After 5 h, the migrated cells were fixed and stained with hematoxilin and eosin. The stained cells were photographed and counted.

HUVECs [2] = assay: tube formation assay on Matrigel; type: cell-based, human; settings: 100 μM; for tube formation inhibited/decreased: compared to control group, tube lengths
Procedure: Chilled Matrigel (150 μl, BD Bioscience) was placed in a pre-chilled 48-well plate and incubated for 30 min at 37° C. HUVECs were treated with each peptide for 30 min and then added to the top of the solidified Matrigel. After 19 h of incubation, the tubes formed were photographed. Images were analyzed using Image J <http://rsb.info.nih.gov/ij/> to determine tube lengths.
That is, the incubated HUVEC with a new serum-free medium was incubated for 2˜4 hr and harvested the cells. After treating the harvested cells at 100 μM with the respective peptides for 30 min, the cells on the hardened Matrigel was incubated for 11˜19 hr, while observing the degree of tube formation, and measured and calculated the lengths of the tubes formed. As a result, it was observed that all the tested peptides, while varying degrees, inhibited tube formation. […] UP3 decreased tube formation by 47%, and TP1 by approximately 37%.

in vivo angiogenesis = assay: in vivo Matrigel plug assay, hemoglobin by Drabkin's reagent; set-up: species or system C57/BL6 mice; settings: for plugs with excessive amount of hemoglobin exceeding 500 mg/dl / hemoglobin amount of Matrigel plug, median: 7 days; for hemoglobin amount / in vivo angiogenesis inhibition (words): compared to control group; for hemoglobin amount of Matrigel plug, median: mice, subcutaneous Matrigel with bFGF, VEGF, heparin and peptide
Procedure: In order to examine the anti-angiogenic activity of the respective peptides in vivo, Matrigel plug assay was performed. 7-week-old C57/BL6 mice (SLC, Japan) were injected subcutaneously in the midventral abdominal region with 0.6 ml of Matrigel containing the bFGF (100 ng/ml), VEGF (100 ng/ml) and heparin (15 unit) with or without peptide. After 7 days, mice were sacrificed by inhalation of CO2 gas and the Matrigel plugs were removed and photographed. To evaluate the formation of vessels, the amount of hemoglobin was quantified using Drabkin's reagent (Sigma). The Matrigel plug was sonicated in RBC lysis buffer (Sigma) and centrifuged at 14000 rpm for 20 min. The supernatant was mixed with Drabkin's reagent and incubated for 3 min. Then, absorbance was measured at 540 nm.

[3] = system: A549 lung cancer cell line; type: cell-based, human; settings: 48 hr, 5% FBS
Procedure: The Effect of the peptides on cancer cell proliferation was investigated using A549 lung cancer cell line. A549 cells were seeded to 96 well plate at 1,000 cells/well and incubated in DMEM medium containing 10% FBS for 48 h. After treatment of each peptide for 30 min, the proliferation of cancer cells was stimulated by 5% FBS alone. After each incubation time, MTS solution was added to each well and incubated for 2 h. Assessment of proliferation was determined by measurement of absorbance at 490 nm.

HUVECs [4] = assay: HUVEC proliferation, MTS assay; type: cell-based, human; settings: for cell viability reduced: 100 μM, compared to untreated control, 5% FBS and 10 ng/ml bFGF; for inhibition of growth of endothelial cells: 5% FBS and bFGF stimulated
Procedure: Cell proliferation was measured by MTS assay. HUVECs were seeded to gelatin-coated 96-well plate at 1,000 cells/well and incubated in M199 supplement media for 48 h. After 48 h, cells were incubated in serum free M199 medium for 4 h, and then treated with each peptide at indicated concentrations for 30 min. Then, the cells were stimulated with 5% FBS and 10 ng/ml bFGF, and were incubated for 48 or 72 hr. Then, assessment of cell proliferation was done by MTS assay.

[5] = system: MDAMB231 breast cancer cells; assay: cancer cell migration, modified Boyden chamber assay, EGF-induced; type: cell-based, human
Procedure: In order to investigate the effect of the respective peptides on cancer cell migration, modified Boyden chamber assay was conducted. MDAMB231 breast cancer cells have EGF receptor and have ability to migrate and metastasize. […] The above results also support that the peptides of the present invention can inhibit cancer cell metastasis.

[6] = 100 μM, compared to untreated control

Compound | tube formation inhibited/decreased (HUVECs [2]) | plugs with excessive amount of hemoglobin exceeding 500 mg/dl (in vivo angiogenesis) | inhibition of proliferation of A549 cancer cells (words) [3] | cell migration reduced (HUVECs [1]; 100 μM) | inhibition of VEGF-induced migration of endothelial cells (HUVECs [1]) | cell viability reduced (HUVECs [4]) | inhibition of growth of endothelial cells (HUVECs [4]) | inhibition of migration of breast cancer cell [5] | cell migration decreased [5, 6] [%] | hemoglobin amount / in vivo angiogenesis inhibition (words) (in vivo angiogenesis) | hemoglobin amount of Matrigel plug, median (in vivo angiogenesis) [mg/dL] | further results
FGNGSAY [TP1, reference compound] | approximately 37% | showed such plugs with excessive hemoglobin |  |  |  |  |  |  |  |  |  | inhibition of migration of endothelial cells (HUVECs [1]; 100 μM): did not inhibit the migration of endothelial cells
PWCHVLKNRRLTWEY [TP7, PWCHVLKNRRLTWEY] | approximately 93% | did not exhibit such plugs | concentration-dependently inhibited proliferation | 31.4% | concentration-dependently inhibited | 65.1% | inhibited growth of endothelial cells; also recorded: strong inhibition effect | concentration-dependently inhibited the migration | 66.3 | decreased amount of hemoglobin | 37.3 | inhibition of proliferation of A549 cancer cells (words) ([3]; listed as TP-7): inhibited proliferation of cancer cells concentration-dependently; median value of hemoglobin amount reduced to (vs untreated control) (in vivo angiogenesis; without statistical significance): ~51%
PWNSMILIGKVYTAQ [TP3, PWNSMILIGKVYTAQ] | approximately 70% | showed such plugs with excessive hemoglobin | concentration-dependently inhibited proliferation |  |  | approximately 26.7% | inhibited growth of endothelial cells | concentration-dependently inhibited the migration | ~69.4 |  |  | inhibition of proliferation of A549 cancer cells (words) ([3]; listed as TP-3): inhibited proliferation of cancer cells concentration-dependently; cell migration reduced (HUVECs [1]; 0.1 μM): 15.4%; cell migration decreased ([5]; 1 μM, compared to untreated control): ~30%
PWCYVQVGLKPLVQE [UP7, PWCYVQVGLKPLVQE] |  | did not exhibit such plugs | concentration-dependently inhibited proliferation | approximately 72% | concentration-dependently inhibited | 69.6% | inhibited growth of endothelial cells; also recorded: strong inhibition effect | concentration-dependently inhibited the migration; also recorded: most potent inhibitory effect | 88 | remarkably reduced hemoglobin amount | 16.3 | inhibition of proliferation of A549 cancer cells (words) ([3]; listed as UP-7): inhibited proliferation of cancer cells concentration-dependently; inhibition of tube formation (HUVECs [2]): did not show any inhibitory effect; cell migration decreased ([5]; 10 μM): approximately 66%; hemoglobin amount / in vivo angiogenesis inhibition (words) (in vivo angiogenesis; listed as UP-7): decreased amount of hemoglobin; also recorded: most potent inhibitory activity against in vivo angiogenesis
CC(C)C[C@H](NC(=O)[C@@H](NC(=O)[C@@H](NC(=O)[C@H](C)NC(=O)[C@H](CO)NC(=O)[C@H](CC(N)=O)NC(=O)[C@H](Cc1c[nH]c2ccccc12)NC(=O)[C@@H]1CCCN1)[C@@H](C)O)C(C)C)C(=O)N[C@@H](CCC(N)=O)C(=O)N[C@@H](CCC(N)=O)C(=O)N[C@H](C(=O)N[C@@H](Cc1ccc(O)cc1)C(=O)N[C@@H](Cc1c[nH]cn1)C(=O)N[C@@H](C)C(=O)N[C@@H](Cc1c[nH]cn1)C(=O)O)[C@@H](C)O [UP3, PWNSATVLQQTYHAH] | 47% | showed such plugs with excessive hemoglobin |  | 28.6% | concentration-dependently inhibited; also recorded: significantly inhibition at concentration of 10 μM or above | approximately 24% | inhibited growth of endothelial cells | concentration-dependently inhibited the migration | 81 | reduced median value | 4.8 | hemoglobin amount / in vivo angiogenesis inhibition (words) (in vivo angiogenesis; listed as UP-3): decreased amount of hemoglobin
